Values quoted from earlier work, collected in patent publication US20090214619A1, “IMPLANT FOR INTRAOCULAR DRUG DELIVERY” (THERAKINE LTD., priority 2004, published 2009).

What was measured:
[1] = system: degenerative diseases such as choroidal neovascularization, macular edema, macular degeneration, branch retinal vein occlusion; conditions: patients with choroidal neovascularization
HSP induced uveitis = conditions: rats with HSP induced uveitis; decreased from 68% without treatment

For Infliximab: chimeric Anti TNF Mab, the effect on vision [1] is listed as “improve vision”.

B1: IL-4: pleiotropic cytokine produced by activated T cells, mast cells, and basophiles (protein, UniProt P05112 25-153, looked up)
Interleukin-4: HKCDITLQEIIKTLNSLTEQKTLCTELTVTDIFAASKNTTEKETFCRAATVLRQFYSHHEKDTRCLGATAQQFHRHKQLIRFLKRLDRNLWGLAGLNSCPVKEANQSTLENFLERLKTIMREKYSKCSS
In the case of B1, the development of uveitis (HSP induced uveitis) is given as 30.4%.
